The text below walks through data of US8426588B2, “Phenylalanine derivatives” (Ajinomoto Co, Inc., priority 2000, dated 2013).

One assay deals with T1, integrin α4β1 (Homo sapiens, UniProt P05556+P13612).
T1 construct: cell strain Jurkat (ATCC TIB-152) of human T cells, known to express integrin α4β1; endogenous in cells; host or cells: Jurkat (ATCC TIB-152)
Kind of assay: VCAM antagonist activity (VCAM-1/α4β1 binding assay), Jurkat cells binding to VCAM-1. Format: cell-based. As to conditions: Jurkat human T cells binding to recombinant human VCAM-1; read-out: VCAM antagonistic activity (IC50) α4β1. As to the method:
VCAM Antagonist Activity (VCAM-1/α4β1 Binding Assay)
The capacity of a test substance antagonistic to the binding of cell strain Jurkat (ATCC TIB-152) of human T cells, known to express integrin α4β1, to VCAM-1 was determined.
(§1) 100 μl/well of a solution (500 ng/ml) of recombinant human VCAM-1 (R & D systems) solution diluted with buffer A (0.1 M NaHCO3, pH 9.6) was added to a micro titer plate having 96 wells (Nunc Maxisorp). After the incubation at 4° C. overnight, unbound VCAM-1 was removed by washing once with PBS. After completion of the washing, a buffer (buffer B) obtained by diluting Block Ace (Dainippon Pharmaceutical Co., Ltd.) with PBS to ¼ concentration was added in an amount of 150 μl/well. After the incubation at room temperature for 1 hour, buffer B was removed and the plate was washed with PBS once.
Jurkat cells were washed with Dulbecco modified Eagle medium (SIGMA, hereinafter referred to as “DMEM”) twice and then incubated in DMEM containing 10 μg/ml of Calcein-AM (Wako Pure Chemical Industries, Ltd.) at 37° C. in dark place for 30 minutes to label with fluorescence. The cells were again suspended in a binding buffer (20 mM HEPES, DMEM containing 0.1% BSA).
(§2) 50 μl of a test substance of various concentrations obtained by the dilution with the binding buffer was added to the plate. Immediately thereafter, 50 μl (final volume: 100 μl/well) of the fluorescent Jurkat cells (4×10^6 cells/ml) were added thereto, and they were incubated in dark place at room temperature for 30 minutes. After the shaking on a plate shaker (IKA MTS-4) at 800 rpm for 30 seconds, the solution was immediately removed to remove the unbound cells. The fluorescence quantity of the bound cells remaining in the wells was determined with a fluorescent plate reader (Wallac 1920 ARVO multi-label counter) (filter excitation wave length: 485 nm, emission wave length: 535 nm). The fluorescent strength thus obtained is proportional to the number of Jurkat cells bound to VCAM-1 and remaining on the plate. The binding rate of each test material in various concentrations was determined while the fluorescent strength of the test material-free well was determined to be 100%.

A further assay deals with T2, integrin α4β7 (Homo sapiens, UniProt P13612+P26010).
T2 construct: lymphoma cell strain RPMI-8866 of human B cells, known to express integrin α4β7; endogenous in cells; host or cells: RPMI-8866
T2 sequence (P13612 34-1032): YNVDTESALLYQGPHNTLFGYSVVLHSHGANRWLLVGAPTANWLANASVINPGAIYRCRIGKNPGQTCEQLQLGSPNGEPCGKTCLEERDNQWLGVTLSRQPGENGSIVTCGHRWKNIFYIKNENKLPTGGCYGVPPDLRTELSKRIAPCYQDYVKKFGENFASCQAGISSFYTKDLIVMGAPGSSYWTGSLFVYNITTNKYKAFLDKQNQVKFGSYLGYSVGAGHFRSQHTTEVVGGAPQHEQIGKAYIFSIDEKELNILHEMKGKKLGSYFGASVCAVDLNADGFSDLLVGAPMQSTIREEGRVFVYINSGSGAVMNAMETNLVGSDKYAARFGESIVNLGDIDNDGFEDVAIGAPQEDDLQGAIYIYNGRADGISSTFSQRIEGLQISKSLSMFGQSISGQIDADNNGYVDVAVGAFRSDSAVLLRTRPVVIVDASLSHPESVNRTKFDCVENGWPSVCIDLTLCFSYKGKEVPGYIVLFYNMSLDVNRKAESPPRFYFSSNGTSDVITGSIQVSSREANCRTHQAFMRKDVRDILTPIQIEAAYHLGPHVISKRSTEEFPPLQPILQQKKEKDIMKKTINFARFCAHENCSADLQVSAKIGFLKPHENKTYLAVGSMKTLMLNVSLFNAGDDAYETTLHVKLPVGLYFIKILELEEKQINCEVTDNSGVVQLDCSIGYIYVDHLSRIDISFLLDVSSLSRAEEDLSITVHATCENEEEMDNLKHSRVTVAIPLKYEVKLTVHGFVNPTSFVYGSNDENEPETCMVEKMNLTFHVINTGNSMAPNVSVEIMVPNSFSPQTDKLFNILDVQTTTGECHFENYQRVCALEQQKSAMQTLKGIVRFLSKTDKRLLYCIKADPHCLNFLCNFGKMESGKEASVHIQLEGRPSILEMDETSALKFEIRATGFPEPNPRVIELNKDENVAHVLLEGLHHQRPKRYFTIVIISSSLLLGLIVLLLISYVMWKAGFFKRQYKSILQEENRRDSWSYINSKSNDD
T2 sequence (P26010 20-798): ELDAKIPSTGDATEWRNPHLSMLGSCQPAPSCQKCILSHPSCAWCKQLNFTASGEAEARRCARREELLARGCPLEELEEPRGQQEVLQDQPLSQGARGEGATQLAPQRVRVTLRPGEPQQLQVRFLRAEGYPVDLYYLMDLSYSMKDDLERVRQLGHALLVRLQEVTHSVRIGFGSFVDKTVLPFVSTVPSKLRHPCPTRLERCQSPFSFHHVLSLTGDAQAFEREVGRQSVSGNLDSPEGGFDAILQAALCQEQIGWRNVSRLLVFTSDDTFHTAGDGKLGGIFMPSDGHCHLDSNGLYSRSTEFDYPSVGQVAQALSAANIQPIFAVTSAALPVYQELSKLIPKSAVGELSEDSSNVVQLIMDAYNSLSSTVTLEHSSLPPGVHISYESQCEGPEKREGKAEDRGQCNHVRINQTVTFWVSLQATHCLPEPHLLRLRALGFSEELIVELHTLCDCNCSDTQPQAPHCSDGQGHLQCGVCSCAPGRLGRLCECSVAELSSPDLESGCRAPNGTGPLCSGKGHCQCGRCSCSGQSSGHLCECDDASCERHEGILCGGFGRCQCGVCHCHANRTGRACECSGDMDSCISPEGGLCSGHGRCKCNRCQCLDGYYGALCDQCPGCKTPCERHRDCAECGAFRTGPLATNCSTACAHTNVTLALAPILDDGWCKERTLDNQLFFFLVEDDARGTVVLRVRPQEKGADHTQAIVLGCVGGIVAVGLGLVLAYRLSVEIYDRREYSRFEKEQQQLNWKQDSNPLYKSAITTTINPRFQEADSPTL
Kind of assay: VCAM antagonistic activity (VCAM-1/α4β7 binding assay), RPMI-8866 cells binding to VCAM-1. Format: cell-based. As to conditions: RPMI-8866 human B lymphoma cells binding to recombinant human VCAM-1; binding buffer with 4 mM MnCl2. As to the method:
VCAM Antagonistic Activity (VCAM-1/α4β7 Binding Assay)
The capacity of a test substance antagonistic to the binding of lymphoma cell strain RPMI-8866 of human B cells, known to express integrin α4β7, to VCAM-1 was determined.
as §1
RPMI-8866 cells were washed with DMEM twice and incubated in Dulbecco modified Eagle medium containing 10 μg/ml of Calcein-AM (Wako Pure Chemical Industries, Ltd.) (SIGMA, hereinafter referred to as “DMEM”) in dark place at 37° C. for 30 minutes to label with fluorescence. The cells were again suspended in a binding buffer (20 mM HEPES, DMEM containing 0.1% BSA) containing 4 mM of MnCl2.
as §2, with “RPMI-8866” for “Jurkat”, “1420” for “1920”

T1 sequence (P05556 21-798, one chain of several): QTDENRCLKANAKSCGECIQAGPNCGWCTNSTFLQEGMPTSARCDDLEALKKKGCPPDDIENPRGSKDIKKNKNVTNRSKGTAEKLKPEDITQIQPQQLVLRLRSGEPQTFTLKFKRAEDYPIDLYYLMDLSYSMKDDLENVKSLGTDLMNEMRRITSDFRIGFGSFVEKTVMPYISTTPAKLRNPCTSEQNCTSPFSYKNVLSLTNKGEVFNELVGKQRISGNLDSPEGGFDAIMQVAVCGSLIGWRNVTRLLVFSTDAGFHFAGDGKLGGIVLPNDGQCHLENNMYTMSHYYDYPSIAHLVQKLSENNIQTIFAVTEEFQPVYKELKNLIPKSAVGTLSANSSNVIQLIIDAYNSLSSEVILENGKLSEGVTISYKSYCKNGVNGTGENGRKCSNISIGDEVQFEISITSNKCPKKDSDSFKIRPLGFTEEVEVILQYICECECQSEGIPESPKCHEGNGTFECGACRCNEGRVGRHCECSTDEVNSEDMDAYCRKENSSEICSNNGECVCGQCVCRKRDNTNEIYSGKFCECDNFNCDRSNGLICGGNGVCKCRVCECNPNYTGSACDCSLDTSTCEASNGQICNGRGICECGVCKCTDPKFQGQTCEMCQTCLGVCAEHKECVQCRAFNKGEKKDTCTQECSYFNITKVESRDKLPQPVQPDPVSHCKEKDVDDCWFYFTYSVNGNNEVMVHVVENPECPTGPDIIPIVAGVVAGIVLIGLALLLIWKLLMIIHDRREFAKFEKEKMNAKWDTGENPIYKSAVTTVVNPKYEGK

`COc1ccc(C(=O)CSc2nc3ccccc3c(=O)n2-c2ccc(C[C@H](NC(=O)c3c(Cl)cccc3Cl)C(=O)O)cc2)cc1` [Example 23]: the results for the 50% inhibitory concentration (IC50) on integrin α4β1 and at integrin α4β7 were 7240 nM and 18 nM, respectively.

In the case of `O=C(N[C@@H](Cc1ccc(-n2c(=O)c3cc([N+](=O)[O-])ccc3n(C3CCC3)c2=O)cc1)C(=O)O)c1c(Cl)cccc1Cl` [Example 59], the IC50 was found to be 540 nM at integrin α4β1 and 35.8 nM at integrin α4β7.

`CN1CCC(=O)N(c2ccc(C[C@H](NC(=O)c3c(Cl)cccc3Cl)C(=O)O)cc2)C1=O` [Example 135]: the figures for the IC50 on integrin α4β1 and on integrin α4β7 were 570 nM and 12 nM, respectively.

Regarding `Cn1c(=O)n(-c2ccc(C[C@H](NC(=O)c3c(Cl)cccc3Cl)C(=O)O)cc2)c(=O)c2cc([N+]3(C)CCCC3)ccc21` [Example 113], the IC50 worked out at 52 nM on integrin α4β1 and 1.6 nM on integrin α4β7.

In the case of `Cc1cccc2c1c(=O)n(-c1ccc(C[C@H](NC(=O)c3c(Cl)cccc3Cl)C(=O)O)cc1)c(=O)n2C` [Example 181], the half-inhibitory concentration (IC50) is 15 nM at integrin α4β1 and 1 nM at integrin α4β7.

As to `Cn1c(=O)n(-c2ccc(C[C@H](NC(=O)c3c(Cl)cccc3Cl)C(=O)O)cc2)c(=O)c2cc(Cl)ccc21` [Example 183], the figures for the IC50 at integrin α4β1 and on integrin α4β7 were 25 nM and 1.7 nM, respectively.

As for `COc1ccc2[nH]c(=O)n(-c3ccc(C[C@H](NC(=O)c4c(Cl)cccc4Cl)C(=O)O)cc3)c(=O)c2c1` [Example 48], the IC50 at integrin α4β1 was 1800 nM; at integrin α4β7, 28 nM.

Turning to `O=C(N[C@@H](Cc1ccc(-n2c(=O)[nH]c3ccc(F)cc3c2=O)cc1)C(=O)O)c1c(Cl)cccc1Cl` [Example 52], the IC50 on integrin α4β1 worked out at 1310 nM; on integrin α4β7 it was 55.3 nM.

On to `O=C(N[C@@H](Cc1ccc(-n2c(=O)c3cc([N+](=O)[O-])ccc3n(Cc3ccccc3)c2=O)cc1)C(=O)O)c1c(Cl)cccc1Cl` [Example 65], for which the values for the half-maximal inhibitory concentration (IC50) on integrin α4β1 and on integrin α4β7 were 330 nM and 7 nM, respectively.

As for `CN1C(=O)N(c2ccc(C[C@H](NC(=O)c3c(Cl)cccc3Cl)C(=O)O)cc2)Cc2ccccc21` [Example 147], the IC50 was 107 nM at integrin α4β1 and 6.5 nM on integrin α4β7.

As for `O=C(N[C@@H](Cc1ccc(-n2c(=O)c3cc([N+](=O)[O-])ccc3n(Cc3ccccc3)c2=S)cc1)C(=O)O)c1c(Cl)cccc1Cl` [Example 69], the IC50 at integrin α4β1 was 5630 nM; on integrin α4β7, 2.5 nM.

`Cc1nc2ccccc2c(=O)n1-c1ccc(C[C@H](NC(=O)c2c(Cl)cccc2Cl)C(=O)O)cc1` [Example 31]: the IC50 on integrin α4β1 came out at 630 nM; on integrin α4β7 it was 50 nM.

Regarding `CCCCc1nc2ccccc2c(=O)n1-c1ccc(C[C@H](NC(=O)c2c(C)cccc2C)C(=O)O)cc1` [Example 41], the results for the IC50 on integrin α4β1 and on integrin α4β7 were 3410 nM and 86 nM, respectively.

With `CCOc1nc2ccccc2c(=O)n1-c1ccc(C[C@H](NC(=O)c2c(Cl)cccc2Cl)C(=O)O)cc1` [Example 37], the results for the IC50 on integrin α4β1 and on integrin α4β7 were 200 nM and 19 nM, respectively.

On to `O=C(N[C@@H](Cc1ccc(-n2c(=O)c3cc([N+](=O)[O-])ccc3n(C3CCCC3)c2=O)cc1)C(=O)O)c1c(Cl)cccc1Cl` [Example 60], for which the IC50 on integrin α4β1 is 780 nM; at integrin α4β7, 36.1 nM.

For the compound `COc1cccc2c(=O)n(-c3ccc(C[C@H](NC(=O)c4c(Cl)cccc4Cl)C(=O)O)cc3)c(=O)[nH]c12` [Example 46], the IC50 at integrin α4β1 came to 195 nM; on integrin α4β7, 6.8 nM.

Regarding `O=C(N[C@@H](Cc1ccc(-n2c(=O)oc3c(ccc4ccccc43)c2=O)cc1)C(=O)O)c1c(Cl)cccc1Cl` [Example 137], the results for the IC50 at integrin α4β1 and at integrin α4β7 were 2120 nM and 11.2 nM, respectively.

For the compound `Cn1c(=O)n(-c2ccc(C[C@H](NC(=O)c3c(Cl)cccc3Cl)C(=O)O)cc2)c(=O)c2cc([N+](=O)[O-])ccc21` [Example 63], the IC50 at integrin α4β1 was 28 nM; on integrin α4β7 it was 1.3 nM.

In the case of `O=C(N[C@@H](Cc1ccc(-n2c(=O)[nH]c3cc(C(F)(F)F)ccc3c2=O)cc1)C(=O)O)c1c(Cl)cccc1Cl` [Example 49], the IC50 on integrin α4β1 came to 1180 nM; at integrin α4β7, 62.1 nM.

For `O=C(N[C@@H](Cc1ccc(-n2c(=O)[nH]c3ccc(Cl)cc3c2=O)cc1)C(=O)O)c1c(Cl)cccc1Cl` [Example 47], the IC50 on integrin α4β1 was found to be 1980 nM; on integrin α4β7, 76 nM.

Regarding `CCOc1nc2ccc(Cl)cc2c(=O)n1-c1ccc(C[C@H](NC(=O)c2c(Cl)cccc2Cl)C(=O)O)cc1` [Example 93], the IC50 came out at 4030 nM on integrin α4β1 and 4.8 nM on integrin α4β7.

On to `Cc1cccc(C)c1C(=O)N[C@@H](Cc1ccc(-n2c(CCl)nc3ccccc3c2=O)cc1)C(=O)O` [Example 44], for which the results for the IC50 at integrin α4β1 and on integrin α4β7 were 4230 nM and 79 nM, respectively.
